Test results taken from patent US10428083B2, “Heterocyclylmethyl-thienouracile as antagonists of the adenosine-A2B-receptor” (BAYER PHARMA AKTIENGESELLSCHAFT, priority 2015, dated 2019).
pIC50: −log10 of the molar value.

What follows are compounds tested against human adenosine A2b receptor (Homo sapiens (Human), UniProt P29275) (assay: Cellular in vitro reporter gene test for A2b receptor activity (CHO-K1, CRE-luciferase, NECA stimulation)). Details: recombinant CHO-K1 cell line, CRE-luciferase reporter, antagonism of EC50 concentration of NECA; in some cases means of several determinations, rounded to two significant figures; read-out: A2b receptor IC50.
human adenosine A2b receptor, sequence (P29275 whole entry): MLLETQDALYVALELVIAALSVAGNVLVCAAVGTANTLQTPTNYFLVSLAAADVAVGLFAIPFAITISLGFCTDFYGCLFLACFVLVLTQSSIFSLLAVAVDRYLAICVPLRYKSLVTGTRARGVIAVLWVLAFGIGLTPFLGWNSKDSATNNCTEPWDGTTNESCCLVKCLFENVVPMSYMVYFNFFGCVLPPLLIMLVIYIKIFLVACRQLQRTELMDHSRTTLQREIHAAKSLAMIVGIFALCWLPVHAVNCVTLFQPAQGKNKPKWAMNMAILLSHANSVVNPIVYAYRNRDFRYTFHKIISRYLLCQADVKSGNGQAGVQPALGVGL
Assay type: cell-based
Procedure: B-1. Cellular In Vitro Tests for Determining A2b Receptor Activity and Adenosine Receptor Selectivity
In the case of the A2a and A2b cell lines, this is a minimal promoter having a plurality of cAMP-responsive elements (CRE). Stimulation of the Gs-coupled A2b or A2a receptors by NECA ultimately leads, via formation of cAMP, to CRE-dependent induction of luciferase expression, which is detected 3 hours after the start of the incubation with NECA using a detection solution in a suitable luminometer. For testing the antagonists, initially, in a pre-experiment, the concentration of NECA which, at the test day in question, results in half-maximum stimulation of luciferase expression (EC50 concentration) is determined. By joint incubation of this EC50 concentration of NECA with the substances to be tested, it is possible to determine their antagonistic activity.

| SMILES | pIC50 |
| --- | --- |
| CCn1c(=O)c2c(C)c(CN3CCC(C)C3=O)sc2n(CCC(F)(F)F)c1=O (racemic) [Example 6, 3-Ethyl-5-methyl-6-[(3-methyl-2-oxopyrrolidin-1-yl)methyl]-1-(3,3,3-trifluoropropyl)thieno[2,3-d]pyrimidine-2,4(1H,3H)-dione (racemate)] | 8.10 |
| CCn1c(=O)c2c(C)c(CN3CC(NC(=O)OC(C)(C)C)CC3=O)sc2n(CCC(F)(F)F)c1=O (racemic) [Example 8, tert-Butyl (1-{[3-ethyl-5-methyl-2,4-dioxo-1-(3,3,3-trifluoropropyl)-1,2,3,4-tetrahydrothieno[2,3-d]pyrimidin-6-yl]methyl}-5-oxopyrrolidin-3-yl)carbamate (racemate)] | 6.92 |
| CCn1c(=O)c2c(C)c(CN3CC(N)CC3=O)sc2n(CCC(F)(F)F)c1=O (racemic) [Example 9, 6-[(4-Amino-2-oxopyrrolidin-1-yl)methyl]-3-ethyl-5-methyl-1-(3,3,3-trifluoropropyl)thieno[2,3-d]pyrimidine-2,4(1H,3H)-dione (racemate)] | 7.01 |
| CCn1c(=O)c2c(C)c(CN3C(=O)CCC3C)sc2n(CCC(F)(F)F)c1=O (racemic) [Example 10, 3-Ethyl-5-methyl-6-[(2-methyl-5-oxopyrrolidin-1-yl)methyl]-1-(3,3,3-trifluoropropyl)thieno[2,3-d]pyrimidine-2,4(1H,3H)-dione (racemate)] | 8.15 |
| CCn1c(=O)c2c(C)c(CN3CCNC3=O)sc2n(CC2CC2(F)F)c1=O (racemic) [Example 54, 1-[(2,2-Difluorocyclopropyl)methyl]-3-ethyl-5-methyl-6-[(2-oxoimidazolidin-1-yl)methyl]thieno[2,3-d]pyrimidine-2,4(1H,3H)-dione (racemate)] | 8.39 |
| CCn1c(=O)c2c(C)c(CN3CCNC3=O)sc2n(CC(C)OC)c1=O (racemic) [Example 62, 3-Ethyl-1-(2-methoxypropyl)-5-methyl-6-[(2-oxoimidazolidin-1-yl)methyl]thieno[2,3-d]pyrimidine-2,4(1H,3H)-dione (racemate)] | 7.14 |
| CCn1c(=O)c2c(C)c(CN3CCNC3=O)sc2n(CC2CCOC2)c1=O (racemic) [Example 73, 3-Ethyl-5-methyl-6-[(2-oxoimidazolidin-1-yl)methyl]-1-(tetrahydrofuran-3-ylmethyl)thieno[2,3-d]pyrimidine-2,4(1H,3H)-dione (racemate)] | 7.10 |
| Cc1c(CN2CCNC2=O)sc2c1c(=O)n(CC(C)C)c(=O)n2CC1CCOC1 (racemic) [Example 90, 3-Isobutyl-5-methyl-6-[(2-oxoimidazolidin-1-yl)methyl]-1-(tetrahydrofuran-3-ylmethyl)thieno[2,3-d]pyrimidine-2,4(1H,3H)-dione (racemate)] | 7.92 |
| COCCn1c(=O)n(CC(C)OC)c(=O)c2c(C)c(CN3CCNC3=O)sc21 (racemic) [Example 99, 1-(2-Methoxyethyl)-3-(2-methoxypropyl)-5-methyl-6-[(2-oxoimidazolidin-1-yl)methyl]thieno[2,3-d]pyrimidine-2,4(1H,3H)-dione] | 7.77 |
| CCn1c(=O)c2c(C)c(Cn3ncn(CC(O)CO)c3=O)sc2n(CCOC(F)(F)F)c1=O (racemic) [Example 115, 6-{[4-(2,3-Dihydroxypropyl)-5-oxo-4,5-dihydro-1H-1,2,4-triazol-1-yl]methyl}-3-ethyl-5-methyl-1-[2-(trifluoromethoxy)ethyl]thieno[2,3-d]pyrimidine-2,4(1H,3H)-dione] | 7.51 |
| Cc1c(CN2CCNC(=O)C2=O)sc2c1c(=O)n(CC(F)(F)F)c(=O)n2CC1CCO1 (racemic) [Example 123, 6-[(2,3-Dioxopiperazin-1-yl)methyl]-5-methyl-1-(oxetan-2-ylmethyl)-3-(2,2,2-trifluoroethyl)thieno[2,3-d]pyrimidine-2,4(1H,3H)-dione] | 7.28 |
| CCn1c(=O)c2c(C)c(Cn3[nH]ccc3=O)sc2n(CC2CCCO2)c1=O (racemic) [Example 129, 3-Ethyl-5-methyl-6-[(5-oxo-2,5-dihydro-1H-pyrazol-1-yl)methyl]-1-(tetrahydrofuran-2-ylmethyl)thieno[2,3-d]pyrimidine-2,4(1H,3H)-dione] | 7.72 |
| Cc1c(Cn2[nH]ccc2=O)sc2c1c(=O)n(C(C)C)c(=O)n2CC1CCCO1 (racemic) [Example 134, 3-Isopropyl-5-methyl-6-[(5-oxo-2,5-dihydro-1H-pyrazol-1-yl)methyl]-1-(tetrahydrofuran-2-ylmethyl)thieno[2,3-d]pyrimidine-2,4(1H,3H)-dione] | 7.52 |
| Cc1c(CN2CCNC2=S)sc2c1c(=O)n(CC(F)(F)F)c(=O)n2CC1CCO1 (racemic) [Example 154, 5-Methyl-1-(oxetan-2-ylmethyl)-6-[(2-thioxoimidazolidin-1-yl)methyl]-3-(2,2,2-trifluoroethyl)thieno[2,3-d]pyrimidine-2,4(1H,3H)-dione] | 8.15 |
| Cc1c(CN2CCNC2=S)sc2c1c(=O)n(CC(F)(F)F)c(=O)n2CC1CCCO1 (racemic) [Example 157, 5-Methyl-1-(tetrahydrofuran-2-ylmethyl)-6-[(2-thioxoimidazolidin-1-yl)methyl]-3-(2,2,2-trifluoroethyl)thieno[2,3-d]pyrimidine-2,4(1H,3H)-dione] | 8.24 |
| Cc1c(CN2CCNC2=O)sc2c1c(=O)n(C(C)C)c(=O)n2CC1CCO1 (racemic) [Example 183, 3-Isopropyl-5-methyl-1-(oxetan-2-ylmethyl)-6-[(2-oxoimidazolidin-1-yl)methyl]thieno[2,3-d]pyrimidine-2,4(1H,3H)-dione] | 7.77 |
| CCC(C)n1c(=O)c2c(C)c(CN3CCNC3=O)sc2n(CCOC)c1=O (racemic) [Example 190, 3-sec-Butyl-1-(2-methoxyethyl)-5-methyl-6-[(2-oxoimidazolidin-1-yl)methyl]thieno[2,3-d]pyrimidine-2,4(1H,3H)-dione] | 7.42 |
| Cc1c(CN2CCNC2=O)sc2c1c(=O)n(CC(C)C)c(=O)n2CC1CCO1 (racemic) [Example 194, 3-Isobutyl-5-methyl-1-(oxetan-2-ylmethyl)-6-[(2-oxoimidazolidin-1-yl)methyl]thieno[2,3-d]pyrimidine-2,4(1H,3H)-dione] | 7.82 |

Next, values leading:

| pIC50 | SMILES |
| --- | --- |
| 8.00 | CCn1c(=O)c2c(C)c(CN3CCNC3=S)sc2n(CC2CCO2)c1=O (racemic) [Example 34, 3-Ethyl-5-methyl-1-(oxetan-2-ylmethyl)-6-[(2-thioxoimidazolidin-1-yl)methyl]thieno[2,3-d]pyrimidine-2,4(1H,3H)-dione (racemate)] |
| 8.20 | CCn1c(=O)c2c(C)c(CN3CCNC3=S)sc2n(CC2CCCO2)c1=O (racemic) [Example 35, 3-Ethyl-5-methyl-1-(tetrahydrofuran-2-ylmethyl)-6-[(2-thioxoimidazolidin-1-yl)methyl]thieno[2,3-d]pyrimidine-2,4(1H,3H)-dione (racemate)] |
| 7.42 | CCn1c(=O)c2c(C)c(CN3CCNC3=S)sc2n(CC2CCCCO2)c1=O (racemic) [Example 36, 3-Ethyl-5-methyl-1-(tetrahydro-2H-pyran-2-ylmethyl)-6-[(2-thioxoimidazolidin-1-yl)methyl]thieno[2,3-d]pyrimidine-2,4(1H,3H)-dione (racemate)] |
| 7.92 | CCn1c(=O)c2c(C)c(CN3CCNC3=O)sc2n(CC2CCO2)c1=O (racemic) [Example 65, 3-Ethyl-5-methyl-1-(oxetan-2-ylmethyl)-6-[(2-oxoimidazolidin-1-yl)methyl]thieno[2,3-d]pyrimidine-2,4(1H,3H)-dione (racemate)] |
| 8.05 | CCn1c(=O)c2c(C)c(CN3CCNC3=O)sc2n(CC2CCCO2)c1=O (racemic) [Example 68, 3-Ethyl-5-methyl-6-[(2-oxoimidazolidin-1-yl)methyl]-1-(tetrahydrofuran-2-ylmethyl)thieno[2,3-d]pyrimidine-2,4(1H,3H)-dione (racemate)] |
| 7.15 | CCn1c(=O)c2c(C)c(CN3CCNC3=O)sc2n(CC2CCCCO2)c1=O (racemic) [Example 71, 3-Ethyl-5-methyl-6-[(2-oxoimidazolidin-1-yl)methyl]-1-(tetrahydro-2H-pyran-2-ylmethyl)thieno[2,3-d]pyrimidine-2,4(1H,3H)-dione (racemate)] |
| 7.96 | Cc1c(CN2CCNC2=S)sc2c1c(=O)n(CC(C)C)c(=O)n2CC1CCO1 (racemic) [Example 146, 3-Isobutyl-5-methyl-1-(oxetan-2-ylmethyl)-6-[(2-thioxoimidazolidin-1-yl)methyl]thieno[2,3-d]pyrimidine-2,4(1H,3H)-dione] |
| 8.10 | Cc1c(CN2CCNC2=S)sc2c1c(=O)n(CC(F)F)c(=O)n2CC1CCCO1 (racemic) [Example 162, 3-(2,2-Difluoroethyl)-5-methyl-1-(tetrahydrofuran-2-ylmethyl)-6-[(2-thioxoimidazolidin-1-yl)methyl]thieno[2,3-d]pyrimidine-2,4(1H,3H)-dione] |
| 7.28 | CCn1c(=O)c2c(C)c(CN3CCN(C(C)C)C3=S)sc2n(CC2CCCO2)c1=O (racemic) [Example 175, 3-Ethyl-6-[(3-isopropyl-2-thioxoimidazolidin-1-yl)methyl]-5-methyl-1-(tetrahydrofuran-2-ylmethyl)thieno[2,3-d]pyrimidine-2,4(1H,3H)-dione] |
| 7.89 | Cc1c(CN2CCNC2=O)sc2c1c(=O)n(C(C)C)c(=O)n2CC1CCCO1 (racemic) [Example 186, 3-Isopropyl-5-methyl-6-[(2-oxoimidazolidin-1-yl)methyl]-1-(tetrahydrofuran-2-ylmethyl)thieno[2,3-d]pyrimidine-2,4(1H,3H)-dione] |
